Calls of active or inactive are those of the source. The rule behind the calls is not given here.
How the values were obtained:
[1] = tested on: SR; assay: Antiproliferative activity against ALK positive human SR cells; assay type: functional, cell-based
[2] = target: T1, Protein cereblon/ALK tyrosine kinase receptor (Homo sapiens, UniProt Q9UM73+Q96SW2); assay: Protac activity at CRBN/ALK in human SR cells assessed as protein abundance at 5 nM by Western blot analysis (reference value: 1); assay type: cell-based
[3] = target: T1, Protein cereblon/ALK tyrosine kinase receptor; assay: Protac activity at CRBN/ALK in human SR cells assessed as protein abundance at 500 nM by Western blot analysis (reference value: 1); assay type: cell-based
[4] = target: T1, Protein cereblon/ALK tyrosine kinase receptor; assay: Protac activity at CRBN/ALK in human SR cells assessed as increase in ALK degradation at 500 nM by Western blot analysis; assay type: cell-based
[5] = target: T1, Protein cereblon/ALK tyrosine kinase receptor; assay: Protac activity at CRBN/ALK in human SR cells assessed as protein abundance at 0.5 nM by Western blot analysis (reference value: 1); assay type: cell-based
[6] = target: T1, Protein cereblon/ALK tyrosine kinase receptor; assay: Protac activity at CRBN/ALK in human SR cells assessed as protein abundance at 50 nM by Western blot analysis (reference value: 1); assay type: cell-based
[7] = target: T1, Protein cereblon/ALK tyrosine kinase receptor; assay: Protac activity at CRBN/ALK in human SR cells assessed as protein abundance at 0.05 nM by Western blot analysis (reference value: 1); assay type: cell-based
[8] = target: von Hippel-Lindau disease tumor suppressor/ALK tyrosine kinase receptor (Homo sapiens) (UniProt Q9UM73+P40337); assay: Protac activity at VHL1/ALK in human SR cells assessed as increase in ALK degradation at 500 nM by Western blot analysis; assay type: cell-based
[9] = tested on: SR; assay: Induction of cell cycle arrest in human SR cells assessed as increase in accumulation at S phase at 100 nM incubated for 24 hrs; assay type: functional, cell-based
[10] = tested on: SR; assay: Induction of cell cycle arrest in human SR cells assessed as increase in accumulation at G1/S phase at 100 nM incubated for 24 hrs; assay type: functional, cell-based

T1 sequence (Q96SW2 whole entry partner): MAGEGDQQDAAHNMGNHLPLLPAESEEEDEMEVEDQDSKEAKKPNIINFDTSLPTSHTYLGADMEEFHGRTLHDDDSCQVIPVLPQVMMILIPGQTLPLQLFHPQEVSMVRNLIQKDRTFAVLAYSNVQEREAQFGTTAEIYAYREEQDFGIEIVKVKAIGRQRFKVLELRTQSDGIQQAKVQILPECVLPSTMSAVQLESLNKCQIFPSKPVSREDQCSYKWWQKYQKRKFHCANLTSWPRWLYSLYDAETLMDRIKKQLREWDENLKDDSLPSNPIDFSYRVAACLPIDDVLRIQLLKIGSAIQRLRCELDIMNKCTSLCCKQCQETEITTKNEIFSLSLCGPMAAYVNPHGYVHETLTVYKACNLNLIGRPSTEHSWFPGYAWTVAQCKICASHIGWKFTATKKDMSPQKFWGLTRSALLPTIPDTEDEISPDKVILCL
T1 sequence (Q9UM73 19-1620 limits assumed): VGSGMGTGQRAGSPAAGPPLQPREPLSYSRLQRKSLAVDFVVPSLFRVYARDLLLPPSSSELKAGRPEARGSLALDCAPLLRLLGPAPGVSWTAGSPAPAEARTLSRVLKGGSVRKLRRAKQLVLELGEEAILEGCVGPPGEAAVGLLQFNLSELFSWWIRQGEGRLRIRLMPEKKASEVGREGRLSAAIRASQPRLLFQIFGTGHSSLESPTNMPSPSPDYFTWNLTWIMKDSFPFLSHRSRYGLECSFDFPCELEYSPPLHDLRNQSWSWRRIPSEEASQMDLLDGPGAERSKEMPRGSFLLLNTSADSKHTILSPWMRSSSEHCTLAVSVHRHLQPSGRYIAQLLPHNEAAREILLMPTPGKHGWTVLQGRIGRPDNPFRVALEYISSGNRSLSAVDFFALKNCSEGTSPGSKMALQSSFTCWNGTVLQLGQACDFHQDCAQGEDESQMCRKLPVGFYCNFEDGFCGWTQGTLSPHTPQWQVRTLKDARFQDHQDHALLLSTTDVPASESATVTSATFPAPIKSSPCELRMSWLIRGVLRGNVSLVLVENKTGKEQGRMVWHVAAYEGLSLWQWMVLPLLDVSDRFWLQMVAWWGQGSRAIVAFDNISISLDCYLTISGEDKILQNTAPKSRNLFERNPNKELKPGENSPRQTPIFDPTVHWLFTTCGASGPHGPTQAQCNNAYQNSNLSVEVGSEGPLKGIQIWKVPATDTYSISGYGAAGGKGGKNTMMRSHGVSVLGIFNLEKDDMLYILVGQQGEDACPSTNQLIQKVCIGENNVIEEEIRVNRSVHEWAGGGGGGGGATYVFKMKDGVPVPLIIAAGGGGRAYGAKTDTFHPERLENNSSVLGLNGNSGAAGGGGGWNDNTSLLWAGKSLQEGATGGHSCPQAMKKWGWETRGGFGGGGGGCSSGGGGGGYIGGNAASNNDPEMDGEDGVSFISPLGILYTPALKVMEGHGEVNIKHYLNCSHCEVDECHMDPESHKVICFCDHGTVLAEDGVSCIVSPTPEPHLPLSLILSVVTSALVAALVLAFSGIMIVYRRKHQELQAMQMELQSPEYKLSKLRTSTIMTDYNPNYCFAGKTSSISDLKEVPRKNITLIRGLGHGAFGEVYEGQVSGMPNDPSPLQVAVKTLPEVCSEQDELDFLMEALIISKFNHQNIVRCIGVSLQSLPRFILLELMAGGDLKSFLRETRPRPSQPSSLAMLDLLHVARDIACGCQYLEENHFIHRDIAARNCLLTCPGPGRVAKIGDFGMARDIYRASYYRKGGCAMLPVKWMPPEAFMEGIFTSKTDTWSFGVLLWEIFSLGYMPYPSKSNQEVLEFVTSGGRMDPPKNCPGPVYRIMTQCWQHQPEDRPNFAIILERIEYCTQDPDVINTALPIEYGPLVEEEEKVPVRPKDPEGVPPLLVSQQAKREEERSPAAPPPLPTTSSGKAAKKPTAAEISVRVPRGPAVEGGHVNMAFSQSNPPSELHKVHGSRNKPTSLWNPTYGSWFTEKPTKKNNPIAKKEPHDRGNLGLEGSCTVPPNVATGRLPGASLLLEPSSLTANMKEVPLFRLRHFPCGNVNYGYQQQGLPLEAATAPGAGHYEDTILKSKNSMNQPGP
von Hippel-Lindau disease tumor suppressor/ALK tyrosine kinase receptor (Homo sapiens), sequence (P40337 whole entry partner): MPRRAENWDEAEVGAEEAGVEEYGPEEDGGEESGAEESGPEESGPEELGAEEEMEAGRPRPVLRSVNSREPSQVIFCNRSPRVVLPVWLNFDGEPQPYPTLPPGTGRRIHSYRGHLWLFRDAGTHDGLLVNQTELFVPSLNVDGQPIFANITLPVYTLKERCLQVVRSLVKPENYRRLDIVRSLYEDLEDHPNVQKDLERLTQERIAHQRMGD
von Hippel-Lindau disease tumor suppressor/ALK tyrosine kinase receptor (Homo sapiens), sequence (Q9UM73 19-1620 limits assumed): as the sequence (Q9UM73 19-1620 limits assumed) above

**Q.** `CCc1cc2c(cc1N1CCC(N3CCN(C(=O)CCCCCNc4cccc5c4C(=O)N(C4CCC(=O)NC4=O)C5=O)CC3)CC1)C(C)(C)c1[nH]c3cc(C#N)ccc3c1C2=O` (centres undefined) was tested. Which IC50 [1] did it give?
**A.** Its IC50 is 3.4 nM.

**Q.** What does the source list for `CCc1cc2c(cc1N1CCC(N3CCN(C(=O)CCCNc4cccc5c4C(=O)N(C4CCC(=O)NC4=O)C5=O)CC3)CC1)C(C)(C)c1[nH]c3cc(C#N)ccc3c1C2=O` (centres undefined)?
**A.** IC50 [1]: 12.9 nM; Activity [2]: 0.66; Activity [3]: 0.47; Activity [4]: Active; Activity [5]: 0.82; Activity [6]: 0.55; Activity [7]: 1.05

**Q.** Which IC50 [1] does the source give for `CCc1cc2c(cc1N1CCC(N3CCNCC3)CC1)C(C)(C)c1[nH]c3cc(C#N)ccc3c1C2=O` here?
**A.** Its IC50 is 4.9 nM.

**Q.** With `CCc1cc2c(cc1N1CCC(N3CCN(C(=O)CNc4cccc5c4C(=O)N(C4CCC(=O)NC4=O)C5=O)CC3)CC1)C(C)(C)c1[nH]c3cc(C#N)ccc3c1C2=O` (centres undefined) as the compound, how does the IC50 [1] read?
**A.** Its IC50 is 4.1 nM.

**Q.** What about the Activity [8] of the same compound?
**A.** The Activity was “Active”.

**Q.** With `CCc1cc2c(cc1N1CCN(C(=O)CCOCCOCCOCCOCCNc3cccc4c3C(=O)N(C3CCC(=O)NC3=O)C4=O)CC1)C(C)(C)c1[nH]c3cc(C#N)ccc3c1C2=O` (centres undefined) as the compound, how does the IC50 [1] read?
**A.** The IC50 was 11.9 nM.

**Q.** With `CCc1cc2c(cc1N1CCN(C(=O)CCCNc3cccc4c3C(=O)N(C3CCC(=O)NC3=O)C4=O)CC1)C(C)(C)c1[nH]c3cc(C#N)ccc3c1C2=O` (centres undefined) as the compound, how does the IC50 [1] read?
**A.** The IC50 was 9.2 nM.

**Q.** With `CCc1cc2c(cc1N1CCC(N3CCN(C(=O)CCCCNc4cccc5c4CN(C4CCC(=O)NC4=O)C5=O)CC3)CC1)C(C)(C)c1[nH]c3cc(C#N)ccc3c1C2=O` (centres undefined) as the compound, how does the IC50 [1] read?
**A.** The IC50 was 4.7 nM.

**Q.** With `CCc1cc2c(cc1N1CCC(N3CCN(C(=O)CCOCCOCCNc4cccc5c4C(=O)N(C4CCC(=O)NC4=O)C5=O)CC3)CC1)C(C)(C)c1[nH]c3cc(C#N)ccc3c1C2=O` (centres undefined) as the compound, how does the IC50 [1] read?
**A.** Its IC50 is 2.5 nM.

**Q.** Which IC50 [1] does the source give for `CCc1cc2c(cc1N1CCC(N3CCN(C(=O)CCCCCNc4cccc5c4CN(C4CCC(=O)NC4=O)C5=O)CC3)CC1)C(C)(C)c1[nH]c3cc(C#N)ccc3c1C2=O` (centres undefined) here?
**A.** The IC50 was 4 nM.

**Q.** Which IC50 [1] does the source give for `CCc1cc2c(cc1N1CCC(NC(=O)CCCNc3cccc4c3C(=O)N(C3CCC(=O)NC3=O)C4=O)CC1)C(C)(C)c1[nH]c3cc(C#N)ccc3c1C2=O` (centres undefined) here?
**A.** Its IC50 is 8.2 nM.

**Q.** Which results are given for `CCc1cc2c(cc1N1CCN(C(=O)CNc3cccc4c3C(=O)N(C3CCC(=O)NC3=O)C4=O)CC1)C(C)(C)c1[nH]c3cc(C#N)ccc3c1C2=O` (centres undefined)?
**A.** IC50 [1]: 3.2 nM; Activity [2]: 0.89; Activity [3]: 0.43; Activity [4]: Active; Activity [5]: 1.12; Activity [6]: 0.66; Activity [7]: 1.17

**Q.** With `CCc1cc2c(cc1N1CCC(N3CCN(CCCCCC#Cc4cccc5c4CN(C4CCC(=O)NC4=O)C5=O)CC3)CC1)C(C)(C)c1[nH]c3cc(C#N)ccc3c1C2=O` (centres undefined) as the compound, how does the IC50 [1] read?
**A.** The IC50 was 1.8 nM.

**Q.** What about the Activity [2] of the same compound?
**A.** Its Activity is 0.76.

**Q.** What about the Activity [3] of the same compound?
**A.** Its Activity is 0.69.

**Q.** And the Activity [5]?
**A.** Its Activity is 1.09.

**Q.** What about the Activity [6] of the same compound?
**A.** The Activity was 0.67.

**Q.** And the Activity [7]?
**A.** The Activity was 1.08.

**Q.** Which IC50 [1] does the source give for `CCc1cc2c(cc1N1CCC(N)CC1)C(C)(C)c1[nH]c3cc(C#N)ccc3c1C2=O` here?
**A.** Its IC50 is 2.8 nM.

**Q.** For `CCc1cc2c(cc1N1CCC(N3CCOCC3)CC1)C(C)(C)c1[nH]c3cc(C#N)ccc3c1C2=O` [ALECTINIB], which Activity [9] is on record?
**A.** Its Activity is “Active”.

**Q.** And the IC50 [1]?
**A.** The IC50 was 3.4 nM.

**Q.** And the Activity [10]?
**A.** The Activity was “Active”.

**Q.** How did the IC50 [1] turn out when `CCc1cc2c(cc1N1CCC(NC(=O)CCCCCNc3cccc4c3C(=O)N(C3CCC(=O)NC3=O)C4=O)CC1)C(C)(C)c1[nH]c3cc(C#N)ccc3c1C2=O` (centres undefined) was run?
**A.** The IC50 was 3.8 nM.

**Q.** With `CCc1cc2c(cc1N1CCC(N3CCN(CCCCCCC#Cc4cccc5c4CN(C4CCC(=O)NC4=O)C5=O)CC3)CC1)C(C)(C)c1[nH]c3cc(C#N)ccc3c1C2=O` (centres undefined) as the compound, how does the IC50 [1] read?
**A.** The IC50 was 1.6 nM.

**Q.** Which IC50 [1] does the source give for `COc1cc(N2CCC(NC(=O)CCCCCCCCCC(=O)N[C@@H](C(=O)N3C[C@H](O)C[C@H]3C(=O)NCc3ccc(-c4scnc4C)cc3)C(C)(C)C)CC2)ccc1Nc1ncc(Cl)c(Nc2ccccc2P(C)(C)=O)n1` here?
**A.** Its IC50 is 1.1 nM.

**Q.** With `CCc1cc2c(cc1N1CCC(N3CCN(C(=O)CCCCCCCCC(=O)NC(C(=O)N4C[C@H](O)C[C@H]4C(=O)NCc4ccc(-c5scnc5C)cc4)C(C)(C)C)CC3)CC1)C(C)(C)c1[nH]c3cc(C#N)ccc3c1C2=O` (single isomer, unassigned) as the compound, how does the IC50 [1] read?
**A.** The IC50 was 18 nM.

**Q.** And the Activity [8]?
**A.** Its Activity is “Active”.

— ChEMBL document CHEMBL4814007, “Structure-based discovery of SIAIS001 as an oral bioavailability ALK degrader constructed from Alectinib” (Eur J Med Chem, 2021)
